Test [1] deals with Age-Impaired (AI) Long-Evans rats. In words: Morris Water Maze retention trial, levetiracetam i.p. Format: in vivo, rat. On the procedure: The MWM apparatus consists of a large, circular pool (diameter 1.53 m; height, 0.58 m) filled with water (27° C.) that is made opaque through the addition of non-toxic pigment or some other substance. In the typical “hidden platform” version of the test, rats are trained to find a camouflaged white escape platform (height, 34.5 cm) that is positioned in the center of one quadrant of the maze about 1.0 cm below the water surface. This platform can be retracted to the bottom of the tank or raised to its normal position from outside the maze during behavioral testing. The location of the platform remains constant from trial to trial. Because there are no local cues that mark the position of the platform, the rat's ability to locate it efficiently from any starting position at the perimeter of the pool depends on using information surrounding the maze. The maze is surrounded by black curtains to which white patterns are affixed to provide a configuration of spatial cues. A second platform (height 37.5 cm), with its surface painted black is elevated 2 cm above the water surface during cue training to control for factors unrelated to cognition. The behavior of a rat in the pool is recorded by a camera that is suspended 2.5 m above the center of the pool. The camera is connected to a video tracking system (HVS Image Advanced Tracker VP200) and a PC computer running HVS software developed by Richard Baker of HVS Image, Hampton, UK. Six Age-Impaired (AI) Long-Evans rats (as characterized above) were tested for their memory of new spatial information in the MWM, under different drug/control treatment conditions (vehicle control and two different dosage levels of levetiracetam). The MWM protocol was substantially the same as the one described in Example 1. Specifically for this study, a retention trial was performed after the training trials, as described below. AI rats were given six training trials per training day with a 60-sec inter-trial interval between each training trial for two consecutive days. […]

The next test relates to somatostatin in DG hilus. In words: Immunohistochemistry of SOM-immunoreactive hilar neurons after chronic levetiracetam. Format: in vivo, rat. As to conditions: levetiracetam 10 mg/kg/day, osmotic minipumps, four weeks, aged-impaired rats; AI-LEV vs AI-VEH p<0.01.
Where [2] appears, read: levetiracetam 10 mg/kg/day i.p.

Molecules are shown by their SMILES. Entries after “also recorded” stand apart in the source; their conditions may differ.

With `CC[C@@H](C(N)=O)N1CCCC1=O` [levetiracetam, (2S)-2-(2-oxopyrrolidin-1-yl)butanamide], the “memory performance (time in target quadrant) compared to vehicle” value is “did not significantly improve” in test [1] (levetiracetam 5 mg/kg/day i.p.) and “significantly improved memory” in test [1] (setting [2]). Moreover, the “time spent in the target annulus” value in test [1] (setting [2]) is “effectivness of the 10 mg/kg/day levetiracetam treatment was also seen”. For the same compound, the “levels of somatostatin (SOM-immunoreactive hilar neurons) in DG hilus” value in the test on somatostatin in DG hilus is recorded as “restores the levels of somatostatin; also recorded: restores sematostatin”.

The values are drawn from patent US10806717B2, “Methods and compositions for improving cognitive function” (The Johns Hopkins University, priority 2013, dated 2020).
